Data on 22 compounds can be found in patent US20100099676A1 (SHIONOGI & CO., LTD., priority 2006, published 2010).

pIC50: −log10 of the molar value. Like-named read-outs stand apart in the source and are kept apart here. A value given as a limit tells only on which side of the number the result lay.

Experiment in all cases: Enzyme inhibiting activity of MMPs, fluorogenic peptide substrate
Holding throughout (type): biochemical

One assay concerns the target T1, MMP-2 (Homo sapiens, UniProt P08253).
T1 construct: purchased Calbiochem (EMD/MERCK Biosciences)
T1 sequence (P08253 110-660): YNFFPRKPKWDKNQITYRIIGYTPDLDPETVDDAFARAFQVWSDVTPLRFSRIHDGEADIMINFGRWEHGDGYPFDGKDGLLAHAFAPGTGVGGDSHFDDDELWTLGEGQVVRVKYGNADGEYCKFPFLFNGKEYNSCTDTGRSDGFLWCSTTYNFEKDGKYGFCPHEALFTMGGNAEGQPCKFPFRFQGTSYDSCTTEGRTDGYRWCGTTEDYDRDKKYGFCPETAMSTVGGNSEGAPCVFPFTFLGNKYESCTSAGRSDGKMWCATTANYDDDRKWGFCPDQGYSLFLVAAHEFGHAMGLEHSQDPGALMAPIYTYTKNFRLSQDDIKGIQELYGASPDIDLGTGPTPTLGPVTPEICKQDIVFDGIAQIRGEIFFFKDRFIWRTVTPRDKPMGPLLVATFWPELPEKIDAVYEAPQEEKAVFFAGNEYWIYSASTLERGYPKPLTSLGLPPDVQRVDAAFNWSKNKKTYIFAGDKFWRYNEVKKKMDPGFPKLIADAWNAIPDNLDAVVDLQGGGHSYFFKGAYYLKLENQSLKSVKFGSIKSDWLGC
To be noted: substrate MOCAc-Pro-Leu-Gly-Leu-A2Pr(DNP)-Ala-Arg-NH2, fluorescent intensity. As to the method:
(§1) Various human MMPs (MMP-2, MMP-9 and MMP-13) were purchased from Calbiochem (EMD/MERCK Biosciences).
(§2) The enzyme activity of MMPs was measured according to the method described in C. Graham Knight, Frances Willenbrock and Gillian Murphy: A novel coumarin-labelled peptide for sensitive continuous assays of the matrix metalloproteinases: FEBS LETT., 296, (1992), 263-266. As a substrate, MOCAc-Pro-Leu-Gly-Leu-A2Pr(DNP)- Ala-Arg-NH2 (Peptide Institute, Inc. Osaka, Japan) was used, and the following four assays are performed per compound (inhibitor) for measuring the inhibiting activity.
(§3) (A) Substrate (synthetic substrate), enzyme (MMPs), inhibitor
(§4) (B) Substrate (synthetic substrate), inhibitor
(§5) (C) Substrate (synthetic substrate), enzyme (MMPs)
(§6) (D) Substrate (synthetic substrate)
(§7) In each assay, the fluorescent intensity was measured, and inhibition (%) was calculated by the following equation.
(§8) Inhibition (%)=[I−(A−B)/(C−D)]×100
(§9) IC50 indicates a concentration at which inhibition (%) is 50%.

A further assay addresses T2, MMP-9 (Homo sapiens, UniProt P14780).
T2 construct: purchased Calbiochem (EMD/MERCK Biosciences)
To be noted: substrate MOCAc-Pro-Leu-Gly-Leu-A2Pr(DNP)-Ala-Arg-NH2, fluorescent intensity. As to the method: as §1, §2, §3, §4, §5, §6, §7, §8, §9

In the next assay the target is T3, MMP-13 (Homo sapiens, UniProt P45452).
T3 construct: purchased Calbiochem (EMD/MERCK Biosciences)
As to the method: as §1
Since the purchased MMP-13 was Proenzyme, the activated one was used, which was incubated at 37° C. for 2 hours after the successive addition of an assay buffer (containing 50 mM Tris-HCl (pH7.6), 0.3 M NaCl, 10 mM CaCl2, 0.005% Brij35) and APMA (final concentration 1 mM) to the enzyme solution.
as §2, §3, §4, §5, §6, §7, §8, §9

[1] abbreviates: APMA-activated proenzyme, substrate MOCAc-Pro-Leu-Gly-Leu-A2Pr(DNP)-Ala-Arg-NH2, fluorescent intensity, read-out: IC50 MMP-13.
Setting [2] is: compounds not described in the Tables, read-out: inhibiting activity for MMP-13.

T2 sequence (P14780 94-707): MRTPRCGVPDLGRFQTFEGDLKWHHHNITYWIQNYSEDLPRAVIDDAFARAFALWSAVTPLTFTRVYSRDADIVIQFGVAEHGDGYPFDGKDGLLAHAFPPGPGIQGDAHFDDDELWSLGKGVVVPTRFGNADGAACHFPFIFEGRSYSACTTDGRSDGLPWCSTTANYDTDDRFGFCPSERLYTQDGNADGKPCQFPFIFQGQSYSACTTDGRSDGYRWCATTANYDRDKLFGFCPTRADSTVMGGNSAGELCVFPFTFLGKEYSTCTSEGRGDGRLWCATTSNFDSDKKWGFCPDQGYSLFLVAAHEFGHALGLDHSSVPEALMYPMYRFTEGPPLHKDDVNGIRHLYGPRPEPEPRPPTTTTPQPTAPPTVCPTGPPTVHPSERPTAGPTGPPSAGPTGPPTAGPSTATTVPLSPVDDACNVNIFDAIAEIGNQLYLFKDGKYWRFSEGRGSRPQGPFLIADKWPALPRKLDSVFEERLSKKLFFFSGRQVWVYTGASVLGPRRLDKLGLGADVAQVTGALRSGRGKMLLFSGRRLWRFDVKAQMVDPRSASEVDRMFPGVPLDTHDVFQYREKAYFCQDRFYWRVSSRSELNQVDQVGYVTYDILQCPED

Take `CC(C)[C@@H](NS(=O)(=O)N1CCN(c2ccc(C#Cc3ccnc(C(=O)NCc4ccc(N5CCCCC5)cc4)c3)cc2)CC1)C(=O)O` [III-171, (R)-3-methyl-2-(4-{4-[2-(4-piperidin-1-ylbenzylcarbamoyl)-pyridin-4-ylethynyl]-phenyl}-piperazine-1-sulfonylamino)-butanoic acid]: the pIC50 on MMP-2 is 5.00 to 6.00; against MMP-9, less than 5.00; on MMP-13 (setting [1]), 8.15. For `CC(C)COc1ccc(C#Cc2ccc(N3CCN(S(=O)(=O)N[C@@H](C(=O)O)C(C)C)CC3)cc2)cc1C(=O)NCc1ccncc1` [Compound V-5, (R)-2-[4-(4-{4-isobutoxy3-[(pyridin-4-ylmethyl)carbamoyl]-phenylethynyl}-phenyl)-piperazine-1-sulfonylamino]-3-methylbutanoic acid], in that order: 5.00 to 6.00, less than 5.00 and 7.74. Consider `C[C@@H](NS(=O)(=O)N1CCN(c2ccc(C#Cc3ccc4c(c3)c(/C=C/Cl)cn4C)cc2)CC1)C(=O)O` [Compound V-44, (R)-2-(4-{4-[3-((E)-2-chrolovinyl)-1-methyl1H-indol-5-ylethynyl]-phenyl}-piperazine-1-sulfonylamino)-proponic acid], for which the values for the pIC50 at MMP-2, on MMP-9 and on MMP-13 (setting [1]) were 5.00 to 6.00, less than 5.00 and 7.80, respectively. For `CC(C)[C@@H](NS(=O)(=O)N1CCN(c2ccc(C#Cc3ccc4c(c3)c(=O)n(Cc3ccc(F)c(F)c3)c(=O)n4C)cc2)CC1)C(=O)O` [Compound V-76, (R)-2-(4-{4-[3-(3,4-difluorobenzyl)-1-methyl-2,4-dioxo-1,2,3,4-tetrahydroquinazolin-6-ylethynyl]-phenyl}-piperazine-1-sulfonylamino)-3-methylbutanoic acid], in that order: less than 5.00, less than 5.00 and 7.74. As to `CC(C)Cc1coc(-c2cc(C#Cc3ccc(N4CCN(S(=O)(=O)N[C@@H](C(=O)O)C(C)C)CC4)cc3)ccn2)n1` [Compound V-8, (R)-2-(4-{4-[2-(4-isobutyloxazol-2-yl)-pyridin-4-ylethynyl]-phenyl}-piperazine-1-sulfonylamino)-3-methylbutanoic acid], the pIC50 against MMP-2 was 5.00 to 6.00; against MMP-9, less than 5.00; at MMP-13 (setting [1]), 8.15. For `CC(C)[C@@H](NS(=O)(=O)N1CCN(c2ccc(C#Cc3ccnc(C(=O)NCc4ccc(Cl)c(Cl)c4)c3)cc2)CC1)C(=O)O` [III-156, (R)-2-(4-{4-[2-(3,4-dichlorobenzylcarbamoyl)-pyridin-4-ylethynyl]-phenyl}-piperazine-1-sulfonylamino)-3-methylbutanoic acid], in that order: 5.00 to 6.00, less than 5.00 and 8.00. On the same counts, the results for `CC(C)OCCOc1ccc(C#Cc2ccc(N3CCN(S(=O)(=O)N[C@@H](C(=O)O)C(C)C)CC3)cc2)cc1C(=O)NCC#N` [III-137, (R)-2-(4-{4-[3-(cyanomethylcarbamoyl)-4-(2-isopropoxyethoxy)-phenylethynyl]-phenyl}-piperazine-1-sulfonylamino)-3-methylbutanoic acid] are 5.00 to 6.00, less than 5.00 and 7.77. Take `C[C@@H](NS(=O)(=O)N1CCN(c2ccc(C#Cc3ccnc(C(=O)NCc4ccccc4)c3)cc2)CC1)C(=O)O` [Compound I-19, (R)-2-{4-[4-(2-benzylcarbamoylpyridin-4-ylethynyl)-phenyl]-piperazine-1-sulfonylamino}-proponic acid]: the pIC50 on MMP-13 (setting [2]) is more than 8.00. Consider `Cc1cc(CNC(=O)c2cccc(C#Cc3ccc(N4CCN(S(=O)(=O)N[C@H](C)C(=O)O)CC4)cc3)c2)ccc1F` [Compound I-28, (R)-2-(4-{4-[3-(4-fluoro3-methylbenzylcarbamoyl)-phenylethynyl]-phenyl}-piperazine-1-sulfonylamino)-proponic acid], for which, on MMP-13 (setting [2]), the pIC50 was more than 8.00.

`C[C@@H](NS(=O)(=O)N1CCN(c2ccc(C#Cc3ccc4cccc(/C=C\C#N)c4c3)cc2)CC1)C(=O)O` [Compound I-69, (R)-2-(4-{4-[8-((Z)-2-cyanovinyl)-naphthalen-2-ylethynyl]-phenyl}-piperazine-1-sulfonylamino)-proponic acid]: the pIC50 at MMP-13 (setting [2]) was 7.00 to 8.00.

On to `C[C@@H](NS(=O)(=O)N1CCN(c2ccc(C#Cc3ccc4cccc(/C=C/C#N)c4c3)cc2)CC1)C(=O)O` [Compound I-67, (R)-2-(4-{4-[8-((E)-2-cyanovinyl)-naphthalen-2-ylethynyl]-phenyl}-piperazine-1-sulfonylamino)-proponic acid], for which the pIC50 at MMP-13 (setting [2]) is more than 8.00. Consider `C[C@@H](NS(=O)(=O)N1CCN(c2ccc(C#Cc3ccc4cccc(/C=C/c5nnn[nH]5)c4c3)cc2)CC1)C(=O)O` [Compound I-71], for which the pIC50 at MMP-13 (setting [2]) is more than 8.00.

As for `Cc1cnc(-c2cccc(C#Cc3ccc(N4CCN(S(=O)(=O)N[C@@H](C(=O)O)C(C)C)CC4)cc3)c2)o1` [Compound I-27, (R)-3-methyl-2-(4-{4-[3-(5-methyloxazol-2-yl)-phenylethynyl]-phenyl}-piperazine-1-sulfonylamino)-butanoic acid], at MMP-13 (setting [2]), the pIC50 is 7.00 to 8.00. On to `C[C@@H](NS(=O)(=O)N1CCN(c2ccc(C#Cc3ccc4cccc(C(=O)NC5CC5)c4c3)cc2)CC1)C(=O)O` [Compound I-107, (R)-2-{4-[4-(8-cyclopropylcarbamoylnaphthalen-2-ylethynyl)-phenyl]-piperazine-1-sulfonylamino}-proponic acid], for which the pIC50 at MMP-13 (setting [2]) is more than 8.00. With `Cc1cc(CNC(=O)c2cccc(/C=C/c3ccc(N4CCN(S(=O)(=O)N[C@H](C)C(=O)O)CC4)cc3)c2)ccc1F` [Compound I-29, (R)-2-[4-(4-{(E)-2-[3-(4-fluoro3-methylbenzylcarbamoyl)-phenyl]-vinyl}-phenyl)-piperazine-1-sulfonylamino]-proponic acid], at MMP-13 (setting [2]), the pIC50 is 7.00 to 8.00.

In the case of `C[C@@H](NS(=O)(=O)N1CCN(c2ccc(C#Cc3cccc(C(=O)NCc4ccccc4)n3)cc2)CC1)C(=O)O` [Compound I-18, (R)-2-{4-[4-(6-benzylcarbamoylpyridine 2-ylethynyl)-phenyl]-piperazine-1-sulfonylamino}-proponic acid], the pIC50 on MMP-13 (setting [2]) is more than 8.00. With `C[C@@H](NS(=O)(=O)N1CCN(c2ccc(C#Cc3ccc4cccc(/C=C/Cl)c4c3)cc2)CC1)C(=O)O` [Compound I-72, (R)-2-(4-{4-[8-((E)-2-chlorovinyl)-naphthalen-2-ylethynyl]-phenyl}-piperazine-1-sulfonylamino)-proponic acid], the pIC50 at MMP-13 (setting [2]) was 7.00 to 8.00. On to `CCC[C@H](NS(=O)(=O)N1CCN(c2ccc(C#Cc3ccc4cccc(C(N)=O)c4c3)cc2)CC1)C(=O)O` [Compound I-92, (S)-2-{4-[4-(8-carbamoylnaphthalen-2-ylethynyl)-phenyl]-piperazine-1-sulfonylamino}-pentanoic acid], for which the pIC50 on MMP-13 (setting [2]) was 7.00 to 8.00. Take `CC(C)C[C@@H](NS(=O)(=O)N1CCN(c2ccc(C#Cc3ccc4cccc(C(N)=O)c4c3)cc2)CC1)C(=O)O` [Compound I-60, (R)-2-{4-[4-(8-carbamoylnaphthalen-2-ylethynyl)-phenyl]-piperazine-1-sulfonylamino}-4-methylpentanoic acid]: the pIC50 on MMP-13 (setting [2]) is 7.00 to 8.00. Turning to `C[C@@H](NS(=O)(=O)N1CCN(c2ccc(C#Cc3ccc4cccc(C(=O)NCCF)c4c3)cc2)CC1)C(=O)O` [Compound I-56, (R)-2-(4-{4-[8-(2-fluoroethylcarbamoyl)-naphthalen-2-ylethynyl]-phenyl}-piperazine-1-sulfonylamino)-proponic acid], the pIC50 at MMP-13 (setting [2]) was more than 8.00.

As for `CC(C)CO/N=C1\CCc2ccc(C#Cc3ccc(N4CCN(S(=O)(=O)N[C@H](C)C(=O)O)CC4)cc3)cc21` [Compound I-161, (R)-2-[4-(4-{3-[(E)-isobutoxyimino]indan-5-ylethynyl}-phenyl)-piperazine-1-sulfonylamino]-proponic acid], the pIC50 on MMP-13 (setting [2]) was 7.00 to 8.00. Take `C[C@@H](NS(=O)(=O)N1CCN(c2ccc(C#Cc3ccc4cccc(-c5ncco5)c4c3)cc2)CC1)C(=O)O` [Compound I-109, (R)-2-{4-[4-(8-oxazol-2-ylnaphthalen-2-ylethynyl)-phenyl]-piperazine-1-sulfonylamino}-proponic acid]: the pIC50 at MMP-13 (setting [2]) is 7.00 to 8.00.
